Results as given in patent EP0326331B1, “Substituted quinolines and cinnolines” (Dow AgroSciences LLC, priority 1988, dated 1989).

How the values were obtained:
Assay type in all cases: in vivo
[1] = system: melon aphids (Aphis gossypii Glover); test: Mite/insect screen, MA; details: Aphis gossypii, foliar, percent mortality, foliar spray on squash, read-out: MA RESULTS %; for mortality at 200 ppm: rate 200 ppm; for mortality at 400 ppm: rate 400 ppm
Procedure, shortened: (§1)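 Compounds dissolved in 50:50 acetone/alcohol containing sulfonate/nonionic emulsifier blends, then diluted with water to the indicated concentrations. Leaves sprayed on both surfaces to runoff at 10 psi and dried one hour. Percent mortality scored after standard exposure periods.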

[2] = system: Erysiphe graminis tritici (powdery mildew); test: Test 1 greenhouse foliar spray screen, powdery mildew on wheat; details: for POWD MDEW: disease control rating, foliar spray on wheat, 400 ppm (+++ at 100 ppm); for pest or weed control at 400 ppm: Blumeria graminis, foliar, Test 1, foliar spray on wheat, disease control rating at 400 ppm / 100 ppm, read-out: POWD MDEW
[3] = system: Pseudoperonospora cubensis (downy mildew); test: Test 1 greenhouse foliar spray screen, downy mildew on squash; details: for DOWN MDEW: disease control rating, foliar spray on squash, 400 ppm (+++ at 100 ppm); for pest or weed control at 400 ppm: Pseudoperonospora cubensis, foliar, Test 1, foliar spray on squash, disease control rating at 400 ppm / 100 ppm, read-out: DOWN MDEW
[4] = system: Pyricularia oryzae (rice blast); test: whole plant or invertebrate; details: for RICE BLAST: disease control rating, foliar spray on rice, 400 ppm (+++ at 100 ppm); for pest or weed control at 400 ppm: Pyricularia oryzae, foliar, read-out: RICE BLAST, Test 1, foliar spray on rice, disease control rating at 400 ppm / 100 ppm
[5] = system: Botrytis cinerea (gray mold); test: Test 1 greenhouse foliar spray screen, gray mold on grape berries; details: for GRAY MOLD: disease control rating, spray on grape berries, 400 ppm (+++ at 100 ppm); for pest or weed control at 400 ppm: Botrytis cinerea, foliar, Test 1, spray on grape berries, disease control rating at 400 ppm / 100 ppm
[6] = system: Twospotted spider mites (Tetranychus urticae Koch); test: Mite/insect screen, SM; details: for mortality at 200 ppm / mortality at 400 ppm: Tetranychus urticae, foliar, percent mortality, foliar spray on squash, read-out: SM RESULTS %; for mortality at 200 ppm: rate 200 ppm; for mortality at 400 ppm: rate 400 ppm; for activity as miticides: summary statement in the description
Procedure, shortened: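 Activity is expressed as percent mortality at the indicated spray concentrations. Plants are sprayed to runoff on upper and lower leaf surfaces with aqueous dilutions of an acetone/alcohol emulsifiable formulation, then dried for one hour.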

[7] = system: southern armyworm (Spodopetra eridania Cramer); test: Mite/insect screen, SAW; details: Spodoptera eridania, foliar, percent mortality, foliar spray on squash, read-out: SAW RESULTS %; for mortality at 200 ppm: rate 200 ppm; for mortality at 400 ppm: rate 400 ppm
Procedure, shortened: as §1

[8] = system: Puccinia recondita tritici (leaf rust); test: Test 1 greenhouse foliar spray screen, leaf rust on wheat; details: for LEAF RUST: disease control rating, foliar spray on wheat, 400 ppm (+++ at 100 ppm); for pest or weed control at 400 ppm: Puccinia recondita, foliar, Test 1, foliar spray on wheat, disease control rating at 400 ppm / 100 ppm
[9] = system: corn rootworm; test: Mite/insect screen, CRW; details: percent mortality, read-out: CRW RESULTS %; for mortality at 12 ppm: CRW rate 12.00 ppm; for mortality at 24 ppm: CRW rate 24.00 ppm
Procedure, shortened: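 Compounds were dissolved in 50:50 acetone/alcohol containing sulfonate/nonionic emulsifier blends (23 g/L plus 13 g/L), then diluted with water to the test concentrations. Percent mortality was scored after standard exposure periods.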

Row | SMILES | mortality at 200 ppm [1] | mortality at 400 ppm [1] | POWD MDEW [2] | DOWN MDEW [3] | RICE BLAST [4] | GRAY MOLD [5] | mortality at 200 ppm [6] | mortality at 400 ppm [6] | mortality at 200 ppm [7] | mortality at 400 ppm [7] | LEAF RUST [8] | mortality at 12 ppm [9] | mortality at 24 ppm [9] | pest or weed control at 400 ppm [2] | pest or weed control at 400 ppm [3] | pest or weed control at 400 ppm [4] | pest or weed control at 400 ppm [5] | pest or weed control at 400 ppm [8] | activity as miticides [6]
1 | FC(F)(F)c1ccc2c(NCCC3=CCCCC3)ccnc2c1 [Example 167, N-[2-(1-cyclohexenyl)ethyl]-7-(trifluoromethyl)-4-quinolinamine] | 0% | 0% | + (20-89% control at 400 ppm) | + (20-89% control at 400 ppm) | - (0-19% control at 400 ppm) | - (0-19% control at 400 ppm) | 0% | 0% | 0% | 0% | - (0-19% control at 400 ppm) | 0% | 0% | – | – | – | – | – | –
2 | Fc1cccc2c(NCCC3CCCCC3)ccnc12 [Example 177, N-(2-cyclohexylethyl)-8-fluoro-4-quinolinamine] | 0% | 0% | ++ (90-100% control at 400 ppm) | +++ (90-100% control at 100 ppm) | +++ (90-100% control at 100 ppm) | - (0-19% control at 400 ppm) | 0% | 0% | 0% | 0% | +++ (90-100% control at 100 ppm) | 0% | 100% | – | – | – | – | – | –
3 | Cc1cc(C)c2nccc(NCCC3CCCCC3)c2c1 [Example 178, N-(2-cyclohexylethyl)-6,8-dimethyl-4-quinolinamine] | 0% | 0% | - (0-19% control at 400 ppm) | +++ (90-100% control at 100 ppm) | + (20-89% control at 400 ppm) | - (0-19% control at 400 ppm) | 0% | 0% | 0% | 0% | ++ (90-100% control at 400 ppm) | 0% | 0% | – | – | – | – | – | –
4 | CC(=O)N(CCc1ccc(Cl)cc1)c1cc(N(CCc2ccc(Cl)cc2)C(C)=O)c2ccccc2n1 [Example 182, N,N'-(2,4-quinolinediyl)bis[N-[2-(4-chlorophenyl)ethyl]acetamide]] | 0% | 0% | - (0-19% control at 400 ppm) | - (0-19% control at 400 ppm) | + (20-89% control at 400 ppm) | - (0-19% control at 400 ppm) | 0% | 0% | 0% | 0% | - (0-19% control at 400 ppm) | 0% | 0% | – | – | – | – | – | –
5 | Clc1ccc(CCNc2ccc3nccc(NCCc4ccc(Cl)cc4)c3c2)cc1 [Example 185, N,N'-bis[2-(4-chlorophenyl)ethyl]-4,6-quinolinediamine] | 0% | 0% | - (0-19% control at 400 ppm) | + (20-89% control at 400 ppm) | + (20-89% control at 400 ppm) | - (0-19% control at 400 ppm) | 0% | 0% | 0% | 0% | + (20-89% control at 400 ppm) | 0% | 0% | – | – | – | – | – | –
6 | Fc1cccc2c(NCCc3ccc(Cl)cc3)cc(NCCc3ccc(Cl)cc3)nc12 [Example 188, N,N'-bis[2-(4-chlorophenyl)ethyl]-8-fluoro-2,4-quinolinediamine] | – | 0% | – | – | – | – | – | 0% | – | 0% | – | – | 0% | 0 to 19% | 90 to 100% | 90 to 100% | 0 to 19% | 20 to 89% | –
7 | CC(=O)N(CCc1ccc(Cl)cc1)c1ccc2c(N(CCc3ccc(Cl)cc3)C(C)=O)ccnc2c1 [Example 191, N,N'-(4,7-quinolinediyl)bis[N-[2-(4-chlorophenyl)ethyl]acetamide]] | 0% | 0% | – | – | – | – | 0% | 0% | 0% | 0% | – | 0% | 0% | 0 to 19% | 0 to 19% | 20 to 89% | 0 to 19% | 90 to 100% | –
8 | Cc1ccc(CCOc2cc(Cl)nc3c(F)cccc23)cc1 [Example 193, 2-chloro-8-fluoro-4-[2-(4-methylphenyl)ethoxy]quinoline] | 0% | 0% | – | – | – | – | 0% | 0% | 0% | 0% | – | 0% | 0% | 0 to 19% | 0 to 19% | 0 to 19% | 0 to 19% | 20 to 89% | –
9 | Clc1cc(Cl)c2c(OCCc3ccc(-c4ccccc4)cc3)ccnc2c1 [Example 194, 5,7-dichloro-4-[2-(1,1'-biphenyl)-4-ylethoxy]quinoline] | 0% | 0% | – | – | – | – | 0% | 0% | 0% | 0% | – | 0% | 0% | 20 to 89% | 0 to 19% | 0 to 19% | 0 to 19% | 0 to 19% | –
10 | COc1cccc(CCOc2ccnc3c(F)cccc23)c1 [Example 195, 4-[2-(3-methoxyphenyl)ethoxy]-8-fluoroquinoline] | – | 0% | – | – | – | – | – | 0% | – | 0% | – | – | 0% | 90 to 100% | 90 to 100% | 90 to 100% | 0 to 19% | 90 to 100% | –
11 | COc1ccc(CCOc2ccnc3c(F)cccc23)cc1 [Example 196, 8-fluoro-4-[2-(4-methoxyphenyl)ethoxy]quinoline] | – | 100% | – | – | – | – | – | 100% | – | 0% | – | – | 0% | 90 to 100% | 90 to 100% | 90 to 100% | 0 to 19% | 90 to 100% | particularly excellent activity
12 | Fc1cccc2c(OCCc3cccc(Oc4ccccc4)c3)ccnc12 [Example 197, 8-fluoro-4-[2-(3-phenoxyphenyl)ethoxy]quinoline] | – | 80% | – | – | – | – | – | 90% | – | 80% | – | – | 0% | 90 to 100% | 20 to 89% | 90 to 100% | 0 to 19% | 90 to 100% | particularly excellent activity
13 | CC(C)(C)c1ccc(CCOc2ccnc3c(Br)cccc23)cc1 [Example 198, 8-bromo-4-[2-(4-(t-butyl)phenyl)ethoxy]quinoline] | – | 80% | – | – | – | – | – | 90% | – | 0% | – | – | 0% | 0 to 19% | 0 to 19% | 0 to 19% | 0 to 19% | 0 to 19% | –
14 | COc1ccc(CCOc2ccnc3c(F)cccc23)cc1OC [Example 199, 4-[2-(3,4-dimethoxyphenyl)ethoxy]-8-fluoroquinoline] | – | 0% | – | – | – | – | – | 0% | – | 0% | – | – | 100% | 90 to 100% | 90 to 100% | 90 to 100% | 0 to 19% | 90 to 100% | –
